Where “and” joins values, the source holds several entries; their conditions need not be identical. Equal values may be shown once. Read-outs that look alike come from different tables or passages of the source.
Experiment: Tissue distribution of SHR9146 in mice after oral gavage of 40 mg/kg
Type: in vivo, ICR mice
Conditions: male, 40 mg/kg oral gavage; for concentration at 1 h / concentration at 3 h / concentration at 6 h: ICR, mouse, po
Procedure: ICR mice with body weight 16–26 g were supplied by Shanghai Lingchang Biotechnology Co., Ltd. (animal breeding license number SCXK (Shanghai) 2013-0018) and housed at Shanghai Institute of Materia Medica, Chinese Academy of Sciences [animal use license number SYXK (Shanghai) 2015-0027]. The mice used in this study were fasted overnight for 12 h but had free access to water. Food was supplied 4 h post-dose. All experiments in this study were conducted in accordance with the Guidelines for the Care and Use of Laboratory Animals of Shanghai Institute of Materia Medica, Chinese Academy of Sciences.
Another set of 30 mice were randomly assigned into five groups with equal numbers, males and females, for tissue distribution study with oral gavage at a single dose of 40 mg/kg at predetermined different time points: pre-dose and post dose at 1, 3, 6, and 24 h, respectively. The whole brain, heart, liver, spleen, lung, kidney, bladder, pancreas, testis, ovary, uterus, stomach, small intestine, adrenal gland, skin, skeletal muscle, thyroid gland, and abdominal fat tissues as well as the whole blood and plasma samples were harvested. Tissue samples were washed with 0.9% sodium chloride solution to remove the residual blood or contents, blotted on a filter paper, and stored at −70°C prior to the analysis.
Protein precipitation was selected for the pretreatment of both the plasma and the tissue homogenate prepared after thawing at room temperature, cut into pieces, and homogenized with a quintuple methanol–water mixture (1:1, v/v) for each tissue sample.
Briefly as follows, an aliquot of 25-μL plasma or tissue homogenate was spiked with 100 μL of internal standard solution (1 μg/mL for plasma, 0.2 μg/mL for tissue homogenate) and 300 μL of methanol added and vortex mixed for 60 s. The mixture was then centrifuged at 14,000 rpm at 4°C for 5.0 min, and the supernatant was diluted with methanol–water (4:1, v/v) in a ratio of 1:9 for the plasma or 1:1 for the tissue homogenate, and 5 μL of the resulting solution was injected for the LC-MS/MS analysis.
After oral administration of 40 mg/kg SHR9146, samples in different tissues at predetermined time points (pre-drug administration, post-drug administration at 1, 3, 6, and 24 h) were collected and prepared for the analysis. The drug concentrations of SHR9146 (μg/g or μg/mL) were determined for each mouse, and the mean and standard deviation were further obtained (Table S7).

[1] = 24 h, individual mice, 40 mg/kg

Compound: OCCn1cc(-c2ccc(N3CCC([C@H]4c5c(F)cccc5-c5cncn54)CC3)cc2)cn1 [SHR9146]
- SHR9146 concentration in Pancreas (1 h, individual mice, 40 mg/kg): 15.265 µg/g and 8.681 µg/g
- SHR9146 concentration in Plasma (1 h, individual mice, 40 mg/kg): 11.481 µg/mL and 5.761 µg/mL
- SHR9146 concentration in Small intestine (1 h, individual mice, 40 mg/kg): 24.690 µg/g and 24.120 µg/g
- SHR9146 concentration in Bladder (3 h, individual mice, 40 mg/kg): 0.390 µg/g and 6.162 µg/g and 6.598 µg/g
- SHR9146 concentration in Brain (3 h, individual mice, 40 mg/kg): BLQ
- SHR9146 concentration in Kidney (3 h, individual mice, 40 mg/kg): 0.314 µg/g and 6.873 µg/g and 7.165 µg/g
- SHR9146 concentration in Liver (3 h, individual mice, 40 mg/kg): 1.367 µg/g and 13.792 µg/g and 13.853 µg/g
- SHR9146 concentration in Lung (3 h, individual mice, 40 mg/kg): 0.798 µg/g and 7.286 µg/g and 7.382 µg/g
- SHR9146 concentration in Pancreas (3 h, individual mice, 40 mg/kg): 0.231 µg/g and 7.160 µg/g and 7.228 µg/g
- SHR9146 concentration in Small intestine (3 h, individual mice, 40 mg/kg): 0.411 µg/g and 11.992 µg/g and 8.326 µg/g
- SHR9146 concentration in Brain (6 h, individual mice): BLQ
- SHR9146 concentration in Abdominal fat (6 h, individual mice, 40 mg/kg): BLQ
- SHR9146 concentration in Adrenal gland (6 h, individual mice, 40 mg/kg): BLQ and 0.313 μg/g
- SHR9146 concentration in Bladder (6 h, individual mice, 40 mg/kg): BLQ and 0.199 μg/g
- SHR9146 concentration in Heart (6 h, individual mice, 40 mg/kg): BLQ
- SHR9146 concentration in Kidney (6 h, individual mice, 40 mg/kg): 0.159 µg/g and 0.129 µg/g and 0.344 µg/g
- SHR9146 concentration in Liver (6 h, individual mice, 40 mg/kg): 0.702 µg/g and 0.351 µg/g and 0.845 µg/g
- SHR9146 concentration in Lung (6 h, individual mice, 40 mg/kg): 0.510 µg/g and 0.701 µg/g
- SHR9146 concentration in Pancreas (6 h, individual mice, 40 mg/kg): BLQ and 0.127 μg/g
- SHR9146 concentration in Plasma (6 h, individual mice, 40 mg/kg): BLQ
- SHR9146 concentration in Skeletal muscle (6 h, individual mice, 40 mg/kg): BLQ
- SHR9146 concentration in Small intestine (6 h, individual mice, 40 mg/kg): BLQ and 0.152 μg/g
- SHR9146 concentration in Spleen (6 h, individual mice, 40 mg/kg): BLQ
- SHR9146 concentration in Whole blood (6 h, individual mice, 40 mg/kg): BLQ
- SHR9146 concentration in thyroid gland (6 h, individual mice, 40 mg/kg): BLQ
- SHR9146 concentration in Abdominal fat (24 h, individual mice): BLQ
- SHR9146 concentration in Adrenal gland (24 h, individual mice): BLQ
- SHR9146 concentration in Bladder (24 h, individual mice): BLQ
- SHR9146 concentration in Brain (24 h, individual mice): BLQ
- SHR9146 concentration in Heart (24 h, individual mice): BLQ
- SHR9146 concentration in Pancreas (24 h, individual mice): BLQ
- SHR9146 concentration in Plasma (24 h, individual mice): BLQ
- SHR9146 concentration in Skeletal muscle (24 h, individual mice): BLQ
- SHR9146 concentration in Small intestine (24 h, individual mice): BLQ
- SHR9146 concentration in Spleen (24 h, individual mice): BLQ
- SHR9146 concentration in Testis (24 h, individual mice): BLQ
- SHR9146 concentration in Whole blood (24 h, individual mice): BLQ
- SHR9146 concentration in thyroid gland (24 h, individual mice): BLQ
- SHR9146 concentration in Kidney [1]: BLQ
- SHR9146 concentration in Liver [1]: BLQ
- SHR9146 concentration in Lung [1]: 0.064 µg/g and 0.105 µg/g
- SHR9146 concentration in Skin [1]: BLQ
- concentration at 1 h (abdominal fat, 40 mg/kg, 1 h, Mean (n=3), read-out: SHR9146 concentration in Abdominal fat): 7200 ng/g
- concentration at 3 h (abdominal fat, 40 mg/kg, 3 h, Mean (n=3), read-out: SHR9146 concentration in Abdominal fat): 4070 ng/g
- concentration at 6 h (abdominal fat, 40 mg/kg, 6 h, Mean (n=3), read-out: SHR9146 concentration in Abdominal fat): 75 ng/g
- concentration at 1 h (adrenal gland, 40 mg/kg, 1 h, Mean (n=3), read-out: SHR9146 concentration in Adrenal gland): 23600 ng/g
- concentration at 1 h (adrenal gland, 40 mg/kg, 1 h, individual mice, read-out: SHR9146 concentration in Adrenal gland): 24100 ng/g
- concentration at 3 h (adrenal gland, 40 mg/kg, 3 h, Mean (n=3), read-out: SHR9146 concentration in Adrenal gland): 8450 ng/g
- concentration at 6 h (adrenal gland, 40 mg/kg, 6 h, Mean (n=3), read-out: SHR9146 concentration in Adrenal gland): 163 ng/g
- concentration at 6 h (adrenal gland, 40 mg/kg, 6 h, individual mice, read-out: SHR9146 concentration in Adrenal gland): 177 ng/g
- concentration at 1 h (bladder, 40 mg/kg, 1 h, Mean (n=3), read-out: SHR9146 concentration in Bladder): 12400 ng/g
- concentration at 1 h (bladder, 40 mg/kg, 1 h, individual mice, read-out: SHR9146 concentration in Bladder): 12500 ng/g
- concentration at 3 h (bladder, 40 mg/kg, 3 h, Mean (n=3), read-out: SHR9146 concentration in Bladder): 4380 ng/g
- concentration at 6 h (bladder, 40 mg/kg, 6 h, Mean (n=3), read-out: SHR9146 concentration in Bladder): 163 ng/g
- concentration at 6 h (bladder, 40 mg/kg, 6 h, individual mice, read-out: SHR9146 concentration in Bladder): 291 ng/g
- concentration at 1 h (brain, 40 mg/kg, 1 h, Mean (n=3), read-out: SHR9146 concentration in Brain): 1890 ng/g
- concentration at 1 h (brain, 40 mg/kg, 1 h, individual mice, read-out: SHR9146 concentration in Brain): 2280 ng/g
- concentration at 3 h (brain, 40 mg/kg, 3 h, Mean (n=3), read-out: SHR9146 concentration in Brain): 666 ng/g
- concentration at 3 h (brain, 40 mg/kg, 3 h, individual mice, read-out: SHR9146 concentration in Brain): 1020 ng/g
- concentration at 1 h (heart, 40 mg/kg, 1 h, Mean (n=3), read-out: SHR9146 concentration in Heart): 7320 ng/g
- concentration at 1 h (heart, 40 mg/kg, 1 h, individual mice, read-out: SHR9146 concentration in Heart): 8420 ng/g
- concentration at 3 h (heart, 40 mg/kg, 3 h, Mean (n=3), read-out: SHR9146 concentration in Heart): 2660 ng/g
- concentration at 6 h (heart, 40 mg/kg, 6 h, Mean (n=3), read-out: SHR9146 concentration in Heart): 48 ng/g
- concentration at 6 h (heart, 40 mg/kg, 6 h, individual mice, read-out: SHR9146 concentration in Heart): 61 ng/g
- concentration at 1 h (kidney, 40 mg/kg, 1 h, Mean (n=3), read-out: SHR9146 concentration in Kidney): 11900 ng/g
- concentration at 1 h (kidney, 40 mg/kg, 1 h, individual mice, read-out: SHR9146 concentration in Kidney): 12300 ng/g
- concentration at 3 h (kidney, 40 mg/kg, 3 h, Mean (n=3), read-out: SHR9146 concentration in Kidney): 4780 ng/g

Source: publication PMC10410440, “Preclinical PK investigation of a novel IDO1/TDO dual inhibitor—SHR9146 in mouse plasma and tissues by LC-MS/MS” (Frontiers in Oncology, 2023)
